{"source": "patent US8697729B2", "about": "“Small molecules modulator of epigenetic regulation and their therapeutic applications” (University of Southern California, priority 2008, dated 2014)", "key": {"frataxin expression": {"tested_on": "frataxin expression", "details": "Friedreich's ataxia; cited from earlier work"}, "HDAC4:MEF2 interaction": {"biological_target": "T1, HDAC4:MEF2 interaction (Homo sapiens, UniProt Q14814)", "T1 sequence (Q14814 1-521)": "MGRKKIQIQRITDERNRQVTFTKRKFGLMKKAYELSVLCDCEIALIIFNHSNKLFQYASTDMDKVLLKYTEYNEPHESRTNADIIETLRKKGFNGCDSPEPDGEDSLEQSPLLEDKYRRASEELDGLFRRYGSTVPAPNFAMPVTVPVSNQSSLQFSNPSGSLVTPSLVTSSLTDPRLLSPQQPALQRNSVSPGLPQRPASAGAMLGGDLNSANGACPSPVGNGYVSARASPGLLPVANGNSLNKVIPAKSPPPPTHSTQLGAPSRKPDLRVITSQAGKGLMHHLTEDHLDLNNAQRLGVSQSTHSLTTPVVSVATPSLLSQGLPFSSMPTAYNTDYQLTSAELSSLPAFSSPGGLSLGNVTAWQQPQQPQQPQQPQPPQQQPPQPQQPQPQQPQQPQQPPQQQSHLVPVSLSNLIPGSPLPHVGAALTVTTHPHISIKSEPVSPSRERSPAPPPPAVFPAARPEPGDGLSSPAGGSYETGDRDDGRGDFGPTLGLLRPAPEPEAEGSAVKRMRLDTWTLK", "assay": "Mammalian two-hybrid luciferase reporter assay (GAL4-MEF2D / HDAC4-VP16 / GAL4Luc)", "format": "cell-based", "source_text": "In a preferred embodiment, there is disclosed herein a two-hybrid system based assay includes a binding domain fused with a bait, an activating domain fused with a prey, and a reporter gene; and determining a reporter signal level.\nA series of MEF2-dependent luciferase reporter assays with transiently transfected MEF2D, HDAC4 and the co-activator p300 were used initially to screen various compounds. But these assays gave weak signal and high frequency of false positives, probably due to the complex transcription activation mechanisms of MEF2 and interference from endogenous factors. Through these observations, it was discovered that a highly sensitive and specific assay that can recapitulate the molecular interaction between HDAC4 and MEF2 inside cells is essential.\nTaking advantage of the structural insights, in addition to the MEF2D L67D mutant mentioned above, we introduced a number mutations in HDAC4 that had been previously shown to disrupt HDAC4:MEF2 interaction in vitro. These mutations also diminished the luciferase signal in the cell-based assay (FIG. 3b)."}, "MEF2A (1-95)": {"biological_target": "T2, MEF2A (1-95) (Homo sapiens, UniProt Q02078)", "T2 construct": "purified MEF2A (1-95) was used as the analyte", "T2 sequence (Q02078 1-95)": "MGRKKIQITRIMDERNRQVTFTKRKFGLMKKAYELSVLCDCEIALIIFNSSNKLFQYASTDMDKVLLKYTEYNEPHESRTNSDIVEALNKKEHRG", "assay": "Surface plasmon resonance (Biacore T-100) competition: MEF2A (1-95) binding to immobilized HDAC4 (aa 155-220)", "details": "for binding of MEF2A to immobilized HDAC4 after incubation with compound: Biacore, increasing concentrations (FIG. 5)", "source_text": "Here HDAC4 (aa 155-220) was immobilized on a CM5 sensor chip and purified MEF2A (1-95) was used as the analyte. The binding of MEF2A to HDAC4 at various concentrations generated a series of well-defined sensorgrams (data not shown). […] These technical limitations made it difficult to obtain a quantitative binding constant."}, "MEF2": {"biological_target": "MEF2", "assay": "in vitro binding, method not stated"}, "HDAC": {"tested_on": "HDAC", "details": "cited from earlier work"}, "GAL4-VP16": {"tested_on": "GAL4-VP16", "details": "10 μM; non-specific inhibition"}, "[1]": {"tested_on": "acetylation of histone but not tubulin", "details": "cited from earlier work"}}, "note": "“Also recorded” adds a separate entry of the source.", "data": [{"compound": "O=C(CCCCCCC(=O)Nc1ccccc1)NO", "note": "[SAHA, Vorinostat]", "values": [{"measurement": "frataxin expression / induction", "setting": "frataxin expression", "result": "no effect; also recorded: did not have this type of activity"}]}, {"compound": "Cc1ccc(NC(=O)CCCCCC(=O)Nc2ccccc2N)cc1", "note": "[compound 106, N^1-(2-aminophenyl)-N^7-p-tolylheptanediamide]", "values": [{"measurement": "frataxin expression / induction", "setting": "frataxin expression", "result": "very active"}]}, {"compound": "Nc1ccccc1NC(=O)CCCCCCC(=O)Nc1ccccc1", "note": "[BML-210, suberoylanilide orthoaminoanilide]", "values": [{"measurement": "normalized luciferase activity in MEF2-HDAC luciferase reporter assay", "setting": "HDAC4:MEF2 interaction; 24 hrs after treatment (FIG. 4)", "result": "decreased in a dose dependent manner"}, {"measurement": "direct binding to MEF2 by Biacore", "setting": "MEF2A (1-95)", "result": "beyond the detection limit"}, {"measurement": "binding of MEF2A to immobilized HDAC4 after incubation with compound", "setting": "MEF2A (1-95)", "result": "bind MEF2 competitively with HDAC4; also recorded: competitive inhibition"}]}, {"compound": "wild type HDAC4 (in vitro binding) (from UniProt P56524 155-220)", "values": [{"measurement": "Kd", "setting": "MEF2", "result": 470, "unit": "nM"}]}, {"compound": "HDAC4 mutant Val180Lys (in vitro binding) (from UniProt P56524 155-220)", "values": [{"measurement": "Kd", "setting": "MEF2", "result": 810, "unit": "nM"}, {"measurement": "weakening of binding against wild type HDAC4", "setting": "MEF2", "result": 60, "unit": "%"}]}, {"compound": "CC(/C=C/C(=O)NO)=C\\[C@@H](C)C(=O)c1ccc(N(C)C)cc1", "note": "[trichostatin A (TSA), trichostatin A]", "values": [{"measurement": "frataxin expression / induction", "setting": "frataxin expression", "result": "no effect"}, {"measurement": "IC50 HDAC inhibition", "setting": "HDAC", "result": "low nanomolar range"}]}, {"compound": "Nc1ccccc1NC(=O)CCCCCC(=O)Nc1ccccc1", "note": "[PAOA, pimeloylanilide orthoaminoanilide]", "values": [{"measurement": "frataxin expression / induction", "setting": "frataxin expression", "result": "enhance the expression of frataxin"}, {"measurement": "expression of HDAC4-VP16", "setting": "HDAC4:MEF2 interaction", "result": "did not affect"}, {"measurement": "decrease of reporter signal driven by GAL4-MEF2D and HDAC4-VP16", "setting": "HDAC4:MEF2 interaction; 10 μM", "result": "about 26 fold"}, {"measurement": "inhibition of the reporter signal in the mammalian two-hybrid assay", "setting": "HDAC4:MEF2 interaction; GAL4-MEF2D/HDAC4-VP16, Hela cells", "result": "inhibited the reporter signal in a dose dependent manner"}, {"measurement": "IC50", "setting": "HDAC4:MEF2 interaction; based on the mammalian two-hybrid assay", "result": "~5000", "unit": "nM"}, {"measurement": "Kd", "setting": "HDAC4:MEF2 interaction; estimated assuming equilibrium HDAC4 concentration ~0.5 μM and HDAC4:MEF2 Kd 0.47 μM, read-out: Kd for binding to MEF2 (estimated)", "result": "~5000", "unit": "nM"}, {"measurement": "reduction of reporter signal driven by GAL4-VP16", "setting": "GAL4-VP16", "result": 5.6, "unit": "fold"}, {"measurement": "selective induction of histone versus tubulin acetylation", "setting": "[1]", "result": "selectively induce acetylation of histone but not tubulin"}, {"measurement": "binding of MEF2A to immobilized HDAC4 after incubation with compound", "setting": "MEF2A (1-95)", "result": "dose dependent decrease; also recorded: binds MEF2 competitively with HDAC4"}]}]}
